Entries after “also recorded” stand apart in the source; their conditions may differ.
Tests used:
[1] = test system: C. albicans; test: Enumeration of C. albicans in feces of mice by cultivation on SDA; assay type: in vivo, mouse (C57BL/6); conditions: day 4 after administration of C. albicans, fluconazole in drinking water
Protocol: Mice was initially colonized with C. albicans (2×10^8 cfu per mouse) after 3 days of antibiotic cocktail treatment in the drinking water, followed by 4 days of fluconazole treatment supplemented in the drinking water (0.5 mg/mL, Sigma). […] Both C. difficile load and C. albicans load were enumerated by cultivation on Day 0 before FMT and Day 1 after FMT.
C. albicans (10231, purchased from ATCC, USA) was administered to mice (2×10^8 cfu per mouse) via gavage after 3-day antibiotic treatment or supplemented in donor stool slurry at the time of donor stool infusion.

[2] = test system: C. difficile; test: Antifungal (fluconazole) treatment before FMT in mice with di-colonisation of C. albicans and C. difficile; assay type: in vivo, mouse (C57BL/6); conditions: recipient mice colonized with C. albicans; fluconazole 0.5 mg/mL in drinking water 4 days before stool infusion
Protocol: Mice was initially colonized with C. albicans (2×10^8 cfu per mouse) after 3 days of antibiotic cocktail treatment in the drinking water, followed by 4 days of fluconazole treatment supplemented in the drinking water (0.5 mg/mL, Sigma). Then the mice were subjected to C. difficile administration (10^7 spores per mice) through gavage after a consecutive 1.5-day antibiotic cocktail- and 1.5-day free water-drinking. Human stool infusion was performed 2 days later after C. difficile gavage. Both C. difficile load and C. albicans load were enumerated by cultivation on Day 0 before FMT and Day 1 after FMT.
Mouse stool were collected both before and after stool infusion. Fecal C. difficile and C. albicans burdens on day 0 before and day 1 after stool infusion were measured by cultivation. Samples were diluted in PBS and respectively plated on taurocholate cycloserine cefoxitin fructose agar (TCCFA) for quantification of C. difficile burden, on Sabouraud dextrose agar (SDA) for quantification of C. albicans load. Stool samples prior to C. albicans colonization from antibiotic-treated mice were plated on SDA to ensure that mice were C. albicans culture negative.

[3] = test system: Clostridium difficile infection (CDI); test: Randomised controlled trial of FMT versus vancomycin (STD) in patients with CDI: treatment outcome; assay type: in vivo, human
Protocol: The current study was a sub-study from a randomised controlled trial (RCT) of FMT versus vancomycin (standard therapy, STD) for patients with CDI. Consecutive CDI subjects enrolled into this randomised controlled trial were invited to participate in a substudy of assessment of fecal microbiota. Patients were included if they had three or more loose or watery stools per day for at least two consecutive days or eight or more soft or loose stools in 48 hours and a positive stool test for C. difficile based on a two-step testing algorithm in our hospital, a positive GDH (Glutamate dehydrogenase) screening test followed by a positive polymerase chain reaction (PCR) test of C. difficile. A total of 31 subjects with CDI and 24 healthy household controls were recruited and stool samples at baseline were obtained for analyses of fungal and bacterial microbiomes. Among them, 24 CDI subjects consented to have stool samples collected serially after treatment for microbiome analysis. 16 CDI subjects were treated with FMT and 8 were treated with vancomycin, and they were followed up at baseline and at weeks 2, 4, 10 and 16 after treatment (FIG. 6). Subjects in the FMT group received 5 days of vancomycin followed by donor infused stool via nasojejunal route and those who had STD received oral vancomycin 500 mg orally four times per day for 10 days. A computer-generated randomization schedule was used to assign patients to the treatment sequences. All patients kept a stool diary and were questioned about stool frequency and consistency and medication use.
Treatment response was defined as an absence of diarrhea or persistent diarrhea that could be explained by other causes with a negative stool test for C. difficile toxin, while relapse was defined as diarrhea with a positive stool test for C. difficile toxin. […]
In subjects who received FMT, a nasoduodenal tube was inserted with radiology guidance. […] The tube was removed 30 minutes after the infusion, and patients were monitored for 2 hours. […]

[4] = test system: gut mycobiota; test: Fungal ITS2 sequencing of fecal DNA (gut mycobiota diversity, richness, composition); assay type: in vivo, human
Protocol: (§1) Fecal DNA was isolated as described below. 100 mg fecal sample was pre-washed with 1 ml ddH2O and pelleted by centrifugation at 10,000×g for 1 minute. The fecal pellet was re-suspended in 800 μl TE buffer (pH 7.5), supplemented with 1.6 μl 2-Mercaptoethanol and 500 U lyticase (Sigma), and incubated at 37° C. for 60 min. The sample was then centrifuged at 10,000×g for 2 minutes and fecal DNA was subsequently extracted from the pellet using ZR Fecal DNA miniPrep kit (Zymo Research, Orange, CA) according to the protocol. Briefly, fecal pellet was added to the BashingBeadLysis Tube with 750 μl Lysis solution, and then processed at maximum speed for 10 minutes. The lysates were centrifuged at ≥10,000×g for 1 minute. The supernatant was transferred to a Zymo-Spin™ IV Spin Filter in a collection tube and centrifuged at 7,000×g for 1 minute. About 1,200 μl of fecal DNA binding buffer was added to the filtrate in the collection tube, followed by concentration and purification in a new filter tube. Finally, a total of 50 μl eluted DNA with a concentration at 20-100 ng/μl was prepared for each sample.
The final fecal DNA for fungal sequencing was amplified based upon ITS2 (Internal transcribed spacer 2) region using primers as below and PrimeSTAR HS DNA Polymerase kit (TaKaRa, Japan). The primer pairs are ITS2-F: 5′-[…]-3′, ITS2-R: 5′-[…]-3′ (SEQ ID NOs 1 and 2, respectively). ITS2 amplicons were generated with 38 cycles of 3-step PCR: 98° C. 10 s, 59° C. 10 s, and 72° C. 30 s. PCR samples were then sequenced on the Illumina MiSeq PE300 platform (2×300 bp, BGI, China), 151,524±97,694 (number±SD) clean sequences obtained on average (sequence statistics in Table 4).
Raw reads were filtered by SOAPnuke (v 1.5.3) (web site: soap.genomics.org.cn/) developed by BGI as follows: (i) adaptors removed, (ii) read removed if N base is more than 3% of the read, (iii) read removed if bases with quality low than 20 were more than 40% of read, (iv) all duplicates removed. Quality control and data analysis were further implemented in PIPITS (v 1.4.5) 31. Briefly, PIPITS_PREP prepares raw reads from Illumina MiSeq sequencers for ITS extraction; PIPITS_FUNITS extracts ITS2 from the reads; and PIPITS_PROCESS analyses the reads to produce operational taxonomic unit (OTU) abundance tables and the RDP taxonomic assignment table for downstream analysis. The quality trimmed and ITS2 extracted reads were aligned to fungi UNITE database exploiting RDP classifier 2.10 for taxonomic assignment to produce operational taxonomic unit (OTU) abundance table (based on sequence identity >97% identity) and phylotype abundance tables at different taxonomic levels, for downstream analysis.
The fungal OTU and phylptype abundance data were imported into R 3.2.3. Richness, diversity, and evenness calculation were performed using the estimated richness function of the phyloseq package. Spearman correlation and their significance were calculated using the cor and cor.test functions in R, respectively. […] Correlation plots were generated using the corrplot package in R. Heat maps were generated using the pheatmap package in R.
To compare differences in the configurations of fungal and bacterial microbiomes between CDI patients and healthy controls, between FMT responders and non-responders, between FMT treatment and vancomycin (STD) treatment, Lefse analyses were performed on the Huttenhower lab Galaxy server (web site: huttenhower.sph.harvard.edu/galaxy/) by importing the […] and bacterial relative abundance values and associated sample metadata, with FDR adjusted p value <0.05 considered significant and effect size calculated. […]

[5] = test system: gut bacterial microbiota; test: Bacterial 16S rRNA sequencing of fecal DNA (bacterial microbiota diversity, richness); assay type: in vivo, human; conditions: responders
Protocol: as §1
The final fecal DNA samples were subject to bacterial 16S rRNA V4 region amplification and sequenced on the Illumina MiSeq PE250 platform (2×250 bp, BGI, China), 132,081±65,429 (number±SD) sequences obtained on average (sequence statistics in Table 5). […]

| SMILES | C. albicans in feces by cultivation [1] | efficacy of FMT in clearing C. difficile infection after anti-fungal treatment [2] | subjects who developed recurrence of CDI (non-responders) ([3]; 16 subjects on FMT, 8 on vancomycin) | subjects cured of CDI / symptom-free with negative stool C. difficile toxin at last follow-up (responders) ([3]; 16 subjects on FMT, 8 on vancomycin, median follow-up of 16 weeks) | Recurrence at week ([3]; individual CDI subject with recurrence, listed as STD) | alterations in fungal richness and diversity during longitudinal follow-up ([4]; 8 CDI subjects treated with vancomycin) | CDI subjects with an increase in gut fungal richness after treatment ([4]; 11 out of 16 (FMT), 3 out of 8 (vancomycin)) [%] | CDI subjects with an increase in gut fungal diversity after treatment ([4]; 13 out of 16 (FMT), 3 out of 8 (vancomycin)) [%] | fungal genera enriched in treatment responders after treatment (LefSe) ([4]; all follow-up samples of treatment responders) | genus Candida in fungal composition after treatment ([4]; during follow-up across STD subjects) | relative abundance of fecal C. albicans after treatment ([4]; last follow-up vs baseline, vancomycin: STD responders) | change in bacterial diversity after treatment [5] |
| --- | --- | --- | --- | --- | --- | --- | --- | --- | --- | --- | --- | --- |
| OC(Cn1cncn1)(Cn1cncn1)c1ccc(F)cc1F [fluconazole] | negative | restored the efficacy of FMT in clearing C. difficile infection |  |  |  |  |  |  |  |  |  |  |
| CN[C@H](CC(C)C)C(=O)N[C@H]1C(=O)N[C@@H](CC(N)=O)C(=O)N[C@H]2C(=O)N[C@H]3C(=O)N[C@H](C(=O)N[C@H](C(=O)O)c4cc(O)cc(O)c4-c4cc3ccc4O)[C@H](O)c3ccc(c(Cl)c3)Oc3cc2cc(c3O[C@@H]2O[C@H](CO)[C@@H](O)[C@H](O)[C@H]2O[C@H]2C[C@](C)(N)[C@H](O)[C@H](C)O2)Oc2ccc(cc2Cl)[C@H]1O [vancomycin] |  |  | three | 5 of the 8 and Five of the eight | week 12; also recorded: week 7; also recorded: week 5 | inconsistent alterations | 37.5 | 37.5 | Candida, Talaromyces, Erythrobasidium, Periconia, Stemphylium, Ganoderma | marked expansion | decrease | significant increase |

Reference: US12427175B2, “Fecal fungome and therapeutic efficacy of fecal microbiota transplantation” (priority 2018, dated 2025)
